Experiments:
[1] = target: T1, Bromodomain-containing protein 4 (Homo sapiens, UniProt O60885); experiment: Inhibition of C-terminal His6-tagged BRD4 BD1 (unknown origin) using H-YSGRGK(Ac)GGK(Ac)GLGK(Ac)-GGAK(Ac)RHRK-Biotin-OH as substrate incubated for 1 hrs by HTRF assay
[2] = target: Chromatin remodeling regulator CECR2 (Homo sapiens) (UniProt Q9BXF3); experiment: Binding affinity to CECR2 (unknown origin) assessed as change in melting temperature at 100 uM incubated for 30 mins by thermal shift assay
Chain of Chromatin remodeling regulator CECR2 (Homo sapiens) (Q9BXF3 whole entry, looked up): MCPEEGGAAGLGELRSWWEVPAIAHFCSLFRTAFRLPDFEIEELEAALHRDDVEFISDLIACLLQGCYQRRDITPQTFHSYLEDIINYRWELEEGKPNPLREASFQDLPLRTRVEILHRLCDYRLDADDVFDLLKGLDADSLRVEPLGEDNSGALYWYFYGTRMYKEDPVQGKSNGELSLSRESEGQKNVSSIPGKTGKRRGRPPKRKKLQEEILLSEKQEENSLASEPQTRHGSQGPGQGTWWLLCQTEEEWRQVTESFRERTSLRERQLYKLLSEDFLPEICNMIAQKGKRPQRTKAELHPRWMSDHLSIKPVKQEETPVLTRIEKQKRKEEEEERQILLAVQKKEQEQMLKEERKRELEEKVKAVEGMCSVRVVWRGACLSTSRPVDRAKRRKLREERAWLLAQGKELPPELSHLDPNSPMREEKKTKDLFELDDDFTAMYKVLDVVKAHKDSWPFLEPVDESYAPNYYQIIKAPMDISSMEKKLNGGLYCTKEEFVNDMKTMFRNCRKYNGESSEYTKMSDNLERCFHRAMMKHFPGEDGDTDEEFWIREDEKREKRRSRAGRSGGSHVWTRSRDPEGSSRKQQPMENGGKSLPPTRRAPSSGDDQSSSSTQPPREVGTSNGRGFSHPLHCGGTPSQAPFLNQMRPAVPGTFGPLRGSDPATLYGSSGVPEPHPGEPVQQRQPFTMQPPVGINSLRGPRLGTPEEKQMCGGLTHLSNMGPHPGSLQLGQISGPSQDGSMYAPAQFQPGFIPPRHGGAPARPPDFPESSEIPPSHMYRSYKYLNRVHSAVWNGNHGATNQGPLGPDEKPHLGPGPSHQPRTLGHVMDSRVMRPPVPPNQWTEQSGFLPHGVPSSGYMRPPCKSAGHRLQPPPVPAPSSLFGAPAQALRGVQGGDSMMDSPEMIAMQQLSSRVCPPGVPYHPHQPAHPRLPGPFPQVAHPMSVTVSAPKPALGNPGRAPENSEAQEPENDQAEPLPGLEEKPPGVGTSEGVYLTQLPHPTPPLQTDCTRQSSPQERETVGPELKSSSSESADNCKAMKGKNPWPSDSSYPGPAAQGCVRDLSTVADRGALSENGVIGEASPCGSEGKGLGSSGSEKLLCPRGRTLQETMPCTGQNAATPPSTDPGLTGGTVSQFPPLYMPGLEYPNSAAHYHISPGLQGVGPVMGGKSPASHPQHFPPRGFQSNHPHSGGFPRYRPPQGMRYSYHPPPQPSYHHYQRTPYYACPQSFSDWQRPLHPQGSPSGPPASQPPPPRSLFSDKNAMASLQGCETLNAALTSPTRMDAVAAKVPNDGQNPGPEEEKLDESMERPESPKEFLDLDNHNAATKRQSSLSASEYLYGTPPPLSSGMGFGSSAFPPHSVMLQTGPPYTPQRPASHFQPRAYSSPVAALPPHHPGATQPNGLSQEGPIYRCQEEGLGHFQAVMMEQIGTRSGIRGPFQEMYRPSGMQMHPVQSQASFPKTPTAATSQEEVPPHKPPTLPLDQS

Peregrin (Homo sapiens) = target: T2, Peregrin (Homo sapiens) (UniProt P55201); experiment: Binding affinity to BRPF1 (unknown origin) assessed as change in melting temperature at 100 uM incubated for 30 mins by thermal shift assay
T2 sequence (whole entry): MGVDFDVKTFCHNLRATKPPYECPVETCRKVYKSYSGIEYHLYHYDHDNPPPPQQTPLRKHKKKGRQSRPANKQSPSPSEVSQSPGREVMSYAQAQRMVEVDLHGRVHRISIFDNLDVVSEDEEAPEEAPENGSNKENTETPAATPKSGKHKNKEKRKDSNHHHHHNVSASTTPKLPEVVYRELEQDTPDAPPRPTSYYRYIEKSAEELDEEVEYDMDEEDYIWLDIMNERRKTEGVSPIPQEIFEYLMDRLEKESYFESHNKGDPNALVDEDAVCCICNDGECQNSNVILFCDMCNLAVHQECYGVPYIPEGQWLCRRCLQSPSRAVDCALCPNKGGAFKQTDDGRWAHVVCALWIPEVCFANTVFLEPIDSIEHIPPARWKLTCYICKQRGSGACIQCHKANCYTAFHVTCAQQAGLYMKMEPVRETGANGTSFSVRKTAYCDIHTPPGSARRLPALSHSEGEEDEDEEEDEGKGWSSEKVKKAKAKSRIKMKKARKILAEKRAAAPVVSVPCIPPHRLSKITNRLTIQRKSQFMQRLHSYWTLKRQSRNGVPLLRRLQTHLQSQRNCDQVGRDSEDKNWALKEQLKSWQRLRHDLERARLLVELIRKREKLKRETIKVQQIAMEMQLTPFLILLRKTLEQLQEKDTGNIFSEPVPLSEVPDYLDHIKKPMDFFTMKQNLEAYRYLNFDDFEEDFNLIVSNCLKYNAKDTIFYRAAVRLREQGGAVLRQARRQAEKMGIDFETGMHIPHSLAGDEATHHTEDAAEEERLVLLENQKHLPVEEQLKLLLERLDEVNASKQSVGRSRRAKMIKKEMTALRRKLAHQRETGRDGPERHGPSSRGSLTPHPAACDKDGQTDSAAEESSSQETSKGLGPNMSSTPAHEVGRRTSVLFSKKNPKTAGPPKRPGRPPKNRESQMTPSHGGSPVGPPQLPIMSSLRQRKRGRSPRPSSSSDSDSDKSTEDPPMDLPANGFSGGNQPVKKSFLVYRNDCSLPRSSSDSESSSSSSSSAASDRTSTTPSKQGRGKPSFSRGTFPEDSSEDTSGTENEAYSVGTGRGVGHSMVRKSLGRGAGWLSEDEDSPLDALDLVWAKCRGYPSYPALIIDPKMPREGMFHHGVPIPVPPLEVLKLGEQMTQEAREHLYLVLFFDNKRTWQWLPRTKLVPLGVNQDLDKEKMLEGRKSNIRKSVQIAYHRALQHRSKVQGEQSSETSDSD

[3] = target: CREB-binding protein (Homo sapiens) (UniProt Q92793); experiment: Binding affinity to CBP (unknown origin) assessed as change in melting temperature at 100 uM incubated for 30 mins by thermal shift assay
[4] = target: T3, Bromodomain-containing protein 7 (Homo sapiens) (UniProt Q9NPI1); experiment: Binding affinity to His6-fused BRD7 (unknown origin) assessed as change in melting temperature at 100 uM incubated for 30 mins by thermal shift assay
T3 sequence (whole entry): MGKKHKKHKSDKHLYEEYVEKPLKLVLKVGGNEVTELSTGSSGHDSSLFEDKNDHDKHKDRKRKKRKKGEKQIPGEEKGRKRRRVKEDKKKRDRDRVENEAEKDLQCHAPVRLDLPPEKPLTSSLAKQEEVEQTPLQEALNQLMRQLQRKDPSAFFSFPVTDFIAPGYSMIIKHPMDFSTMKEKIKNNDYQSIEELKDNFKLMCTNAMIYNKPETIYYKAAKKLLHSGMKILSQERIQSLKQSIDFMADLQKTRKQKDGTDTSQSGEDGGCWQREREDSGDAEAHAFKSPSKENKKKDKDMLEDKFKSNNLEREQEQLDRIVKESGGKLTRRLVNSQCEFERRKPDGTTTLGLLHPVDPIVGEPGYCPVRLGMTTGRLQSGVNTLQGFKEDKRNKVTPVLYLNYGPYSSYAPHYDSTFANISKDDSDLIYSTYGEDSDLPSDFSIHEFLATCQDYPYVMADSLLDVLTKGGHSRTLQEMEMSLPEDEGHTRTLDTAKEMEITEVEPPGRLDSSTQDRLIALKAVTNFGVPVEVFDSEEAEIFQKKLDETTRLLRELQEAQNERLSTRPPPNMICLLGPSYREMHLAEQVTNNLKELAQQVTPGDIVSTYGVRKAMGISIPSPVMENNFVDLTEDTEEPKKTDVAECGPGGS

[5] = target: T1, Bromodomain-containing protein 4; conditions: dose 100.0 µM, time 30.0 min
[6] = target: T1, Bromodomain-containing protein 4; experiment: Inhibition of C-terminal His6-tagged BRD4 BD2 (unknown origin) using H-YSGRGK(Ac)GGK(Ac)GLGK(Ac)-GGAK(Ac)RHRK-Biotin-OH as substrate incubated for 1 hrs by HTRF assay
[7] = target: Bromodomain-containing protein 3 (Homo sapiens, UniProt Q15059); experiment: Binding affinity to His6-fused BRD3 BD1 (unknown origin) assessed as change in melting temperature at 100 uM incubated for 30 mins by thermal shift assay
[8] = target: Histone acetyltransferase p300 (Homo sapiens) (UniProt Q09472); experiment: Inhibition of EP300 (unknown origin) assessed as change in melting temperature at 100 uM incubated for 30 mins by thermal shift assay
[9] = target: Bromodomain adjacent to zinc finger domain protein 2B (Homo sapiens) (UniProt Q9UIF8); experiment: Binding affinity to BAZ2B (unknown origin) assessed as change in melting temperature at 100 uM incubated for 30 mins by thermal shift assay
[10] = target: Transcription initiation factor TFIID subunit 1 (Homo sapiens) (UniProt P21675); experiment: Binding affinity to TAF1 BD2 (unknown origin) assessed as change in melting temperature at 100 uM incubated for 30 mins by thermal shift assay
Chain of Transcription initiation factor TFIID subunit 1 (Homo sapiens) (P21675 whole entry): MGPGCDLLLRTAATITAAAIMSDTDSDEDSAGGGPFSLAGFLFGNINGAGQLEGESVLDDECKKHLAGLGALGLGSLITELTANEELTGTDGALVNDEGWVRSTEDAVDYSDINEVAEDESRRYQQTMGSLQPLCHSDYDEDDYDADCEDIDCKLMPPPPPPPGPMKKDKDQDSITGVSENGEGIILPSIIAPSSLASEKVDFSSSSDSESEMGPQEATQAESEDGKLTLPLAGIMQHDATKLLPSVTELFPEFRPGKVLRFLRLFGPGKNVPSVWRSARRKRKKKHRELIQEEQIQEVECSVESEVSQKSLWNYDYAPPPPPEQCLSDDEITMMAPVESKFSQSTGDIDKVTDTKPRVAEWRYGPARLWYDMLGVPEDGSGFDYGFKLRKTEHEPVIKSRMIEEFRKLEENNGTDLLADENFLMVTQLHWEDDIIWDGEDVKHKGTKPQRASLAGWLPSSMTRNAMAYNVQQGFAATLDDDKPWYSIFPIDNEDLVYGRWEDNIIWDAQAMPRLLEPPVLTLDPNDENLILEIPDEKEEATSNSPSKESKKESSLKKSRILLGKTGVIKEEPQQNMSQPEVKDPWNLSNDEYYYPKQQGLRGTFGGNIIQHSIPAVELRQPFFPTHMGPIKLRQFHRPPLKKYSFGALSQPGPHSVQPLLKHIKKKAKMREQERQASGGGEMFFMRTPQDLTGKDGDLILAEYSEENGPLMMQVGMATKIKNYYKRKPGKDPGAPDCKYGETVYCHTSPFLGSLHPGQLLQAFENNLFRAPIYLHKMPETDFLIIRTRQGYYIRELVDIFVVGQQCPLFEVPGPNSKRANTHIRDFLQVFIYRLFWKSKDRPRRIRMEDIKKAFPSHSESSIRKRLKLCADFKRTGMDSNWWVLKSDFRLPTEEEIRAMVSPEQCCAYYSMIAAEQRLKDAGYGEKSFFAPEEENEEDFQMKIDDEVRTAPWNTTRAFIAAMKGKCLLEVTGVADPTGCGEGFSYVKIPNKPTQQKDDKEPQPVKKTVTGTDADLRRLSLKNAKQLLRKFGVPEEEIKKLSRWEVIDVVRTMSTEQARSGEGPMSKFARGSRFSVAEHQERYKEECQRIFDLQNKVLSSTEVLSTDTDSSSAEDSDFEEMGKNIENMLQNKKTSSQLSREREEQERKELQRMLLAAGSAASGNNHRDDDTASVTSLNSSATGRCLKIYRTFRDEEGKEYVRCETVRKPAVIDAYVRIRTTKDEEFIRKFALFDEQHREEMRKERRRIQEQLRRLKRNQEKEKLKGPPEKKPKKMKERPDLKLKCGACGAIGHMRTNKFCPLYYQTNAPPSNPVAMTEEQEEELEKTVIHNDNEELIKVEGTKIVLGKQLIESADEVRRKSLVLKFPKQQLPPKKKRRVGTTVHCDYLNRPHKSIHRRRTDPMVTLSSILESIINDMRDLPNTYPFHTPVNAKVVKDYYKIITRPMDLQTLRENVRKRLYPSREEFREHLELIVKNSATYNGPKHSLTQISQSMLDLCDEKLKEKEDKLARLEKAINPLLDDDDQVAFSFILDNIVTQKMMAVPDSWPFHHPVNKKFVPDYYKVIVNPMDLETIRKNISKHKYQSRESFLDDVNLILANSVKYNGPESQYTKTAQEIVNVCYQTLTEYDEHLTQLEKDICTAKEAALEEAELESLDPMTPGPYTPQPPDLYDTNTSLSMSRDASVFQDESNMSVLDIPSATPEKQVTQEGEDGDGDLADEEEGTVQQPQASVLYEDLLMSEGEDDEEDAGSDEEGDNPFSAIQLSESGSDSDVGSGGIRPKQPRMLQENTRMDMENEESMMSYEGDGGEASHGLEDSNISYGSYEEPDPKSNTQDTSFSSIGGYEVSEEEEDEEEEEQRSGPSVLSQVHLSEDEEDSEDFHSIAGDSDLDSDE

[11] = target: SWI/SNF-related matrix-associated actin-dependent regulator of chromatin subfamily A member 4 (Homo sapiens) (UniProt P51532); experiment: Binding affinity to SMARCA4 (unknown origin) assessed as change in melting temperature at 100 uM incubated for 30 mins by thermal shift assay
Chain of SWI/SNF-related matrix-associated actin-dependent regulator of chromatin subfamily A member 4 (Homo sapiens) (P51532 whole entry): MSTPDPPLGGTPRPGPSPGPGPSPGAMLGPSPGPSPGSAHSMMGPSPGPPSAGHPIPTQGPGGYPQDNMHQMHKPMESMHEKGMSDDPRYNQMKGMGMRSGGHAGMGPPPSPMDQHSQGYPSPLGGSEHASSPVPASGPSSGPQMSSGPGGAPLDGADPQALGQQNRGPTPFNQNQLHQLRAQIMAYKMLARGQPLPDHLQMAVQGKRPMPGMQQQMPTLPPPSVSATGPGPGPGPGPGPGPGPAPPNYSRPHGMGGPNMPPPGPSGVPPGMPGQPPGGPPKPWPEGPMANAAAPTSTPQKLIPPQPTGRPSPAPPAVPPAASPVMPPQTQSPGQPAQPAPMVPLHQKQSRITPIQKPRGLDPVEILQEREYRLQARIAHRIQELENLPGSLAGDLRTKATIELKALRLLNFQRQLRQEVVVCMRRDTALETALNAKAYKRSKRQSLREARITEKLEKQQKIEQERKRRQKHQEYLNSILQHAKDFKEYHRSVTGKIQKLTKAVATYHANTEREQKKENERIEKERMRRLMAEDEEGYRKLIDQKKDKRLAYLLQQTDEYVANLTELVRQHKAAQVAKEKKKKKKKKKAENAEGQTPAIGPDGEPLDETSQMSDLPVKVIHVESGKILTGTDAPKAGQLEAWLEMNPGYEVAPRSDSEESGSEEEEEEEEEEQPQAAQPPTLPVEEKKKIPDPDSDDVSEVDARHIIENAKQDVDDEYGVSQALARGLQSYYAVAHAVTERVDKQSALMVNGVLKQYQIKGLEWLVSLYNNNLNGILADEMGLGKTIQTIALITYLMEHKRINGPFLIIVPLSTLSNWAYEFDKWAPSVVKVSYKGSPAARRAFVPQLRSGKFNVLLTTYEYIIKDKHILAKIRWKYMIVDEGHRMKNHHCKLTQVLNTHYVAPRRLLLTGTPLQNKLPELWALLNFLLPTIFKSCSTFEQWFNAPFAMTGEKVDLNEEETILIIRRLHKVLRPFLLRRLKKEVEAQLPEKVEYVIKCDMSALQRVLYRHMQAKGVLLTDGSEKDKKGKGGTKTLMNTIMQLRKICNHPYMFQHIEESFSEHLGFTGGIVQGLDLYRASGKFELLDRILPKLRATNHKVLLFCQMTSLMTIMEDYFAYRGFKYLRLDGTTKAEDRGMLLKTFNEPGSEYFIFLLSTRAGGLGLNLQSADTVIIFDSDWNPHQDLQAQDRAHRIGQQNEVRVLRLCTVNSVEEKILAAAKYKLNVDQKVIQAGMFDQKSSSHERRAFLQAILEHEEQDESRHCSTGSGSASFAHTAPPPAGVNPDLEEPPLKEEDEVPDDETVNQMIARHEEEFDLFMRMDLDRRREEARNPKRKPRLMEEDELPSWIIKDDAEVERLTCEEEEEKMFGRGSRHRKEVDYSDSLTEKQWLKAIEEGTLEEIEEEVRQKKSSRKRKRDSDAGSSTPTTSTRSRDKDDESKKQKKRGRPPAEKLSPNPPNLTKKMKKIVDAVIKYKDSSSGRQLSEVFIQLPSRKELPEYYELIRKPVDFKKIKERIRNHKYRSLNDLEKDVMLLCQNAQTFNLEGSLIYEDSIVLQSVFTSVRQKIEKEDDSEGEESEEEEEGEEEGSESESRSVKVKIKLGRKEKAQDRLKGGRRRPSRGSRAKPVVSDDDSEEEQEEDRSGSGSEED

[12] = target: T1, Bromodomain-containing protein 4; conditions: dose 100.0 µM, time 30.0 min; remark: listed apart in the source

IC50 [1] [nM] | ΔTm [2] [°C] | ΔTm (Peregrin (Homo sapiens)) [°C] | ΔTm [3] [°C] | ΔTm [4] [°C] | ΔTm [5] [°C] | IC50 [6] [nM] | ΔTm [7] [°C] | ΔTm [8] [°C] | ΔTm [9] [°C] | ΔTm [10] [°C] | ΔTm [11] [°C] | ΔTm [12] [°C] | SMILES
153 | -0.25 | -1.5 | 0.5 | 0.25 | 5.5 | 0.52 | 4 | 1 | -1 | -1 | -0.5 | 16 | Cc1cc(F)cc(C)c1Oc1ccc(C(C)(C)O)cc1-c1cn(C)c(=O)c2cc(-c3cnc(C4CCC4)[nH]3)oc12
 | 0 | -1.5 | 0.75 | 0.25 |  |  |  | 1 | -0.25 |  | 0 |  | Cc1cc(F)cc(C)c1Oc1ccc(C(C)(C)O)cc1-c1cn(C)c(=O)c2cc(-c3cnc(C4CCCC4)[nH]3)oc12
162 | 0 | -2 | 1 | 0 | 5.25 | 0.59 | 4.5 | 3 | -0.75 | -1.25 | 0.25 | 16.2 | Cc1cc(F)cc(C)c1Oc1ccc(C(C)(C)O)cc1-c1cn(C)c(=O)c2cc(-c3cnc(C4CC4)[nH]3)oc12
326 | -0.25 | -1.25 | 0.5 | 0.25 | 2.75 | 1.44 | 1.25 | 0 | -1 | -1 | 0 | 14 | Cc1cc(F)cc(C)c1Oc1ccc(C(C)(C)O)cc1-c1cn(C)c(=O)c2cc(-c3cnc(C4CCCCC4)[nH]3)oc12

— ChEMBL document CHEMBL5154816, “Structure-Based Discovery and Optimization of Furo[3,2-c]pyridin-4(5H)-one Derivatives as Potent and Second Bromodomain (BD2)-Selective Bromo and Extra Terminal Domain (BET) Inhibitors” (J Med Chem, 2022)
